Data on eleven compounds can be found in patent US8871756B2 (Hoffmann-La Roche Inc., priority 2011, dated 2014).

The first experiment concerns established RSV infection.
Test: not given
Particulars: in vivo; cited from earlier work.
Regarding palivizumab, the “efficacy in the treatment of established RSV infection” value is “not effective”.

The test system of a further experiment is RSV.
Test: not given
Conditions: Phase III clinical trials; cited from earlier work.
For motavizumab, the benefit over palivizumab entry is recorded as “failed to show additional benefit over palivizumab”.

For the next experiment, the system named is RSV infection.
Test: not given
Conditions: selected infants; intramuscularly at 15 mg/kg once a month for the duration of RSV season; cited from earlier work.
Turning to palivizumab, the “reduction of hospitalization rate caused by RSV infection” value is given as 45-55%.

For a further experiment, the system named is RSV Long strain. The experiment can be described thus: Viral cytopathic effect (CPE) assay, anti-RSV activity. The class given is cell-based, Respiratory Syncytial Virus. Particulars: human respiratory syncytial virus, 144 h, RSV Long strain (ATCC); cell viability after 6 days, Cell Counting kit-8. In a few lines: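 EC50 was derived from CCK-8 viability at 450/630 nm measured 6 days post-infection. Infection used enough RSV Long strain for approximately 80–90% cytopathic effect, in the presence of half-log serially diluted compound. Cells were plated the day before at 6×10^3 per well in DMEM/10% FBS.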
For orientation: EC50 means the concentration that produces a half-maximal response. A higher EC50 goes with a less potent agent. Compound `Cc1ccc2nc(N3CCS(=O)(=O)c4ccccc4C3)cc(NCCCCCN)c2c1` [Example 3-55, N-[2-(1,1-Dioxido-2,3-dihydro-1,4-benzothiazepin-4(5H)-yl)-6-methylquinolin-4-yl]pentane-1,5-diamine] registered a 50% effective concentration (EC50) of 0.027 µM. Still for that read-out and setting: next, `Cc1ccc2nc(N3CCS(=O)(=O)c4ccccc4C3)cc(N3C(=O)NCC34COC4)c2c1` [Example 86, 5-[2-(1,1-Dioxido-2,3-dihydro-1,4-benzothiazepin-4(5H)-yl)-6-methylquinolin-4-yl]-2-oxa-5,7-diazaspiro[3.4]octan-6-one]: 2.22 µM. Same read-out and setting: in the case of `Cc1ccc2nc(N3CCC(F)(F)c4ccccc4C3)cc(N3C[C@@H](N)[C@H](O)C3)c2c1` (relative stereo) [Example 111-11, trans-4-Amino-1-[2-(5,5-difluoro-1,3,4,5-tetrahydro-2H-2-benzazepin-2-yl)-6-methylquinolin-4-yl]pyrrolidin-3-ol] it was 0.588 µM; in that of `Cc1ccc2nc(N3CCS(=O)(=O)c4ccccc4C3)cc(N3CCCNCC3)c2c1` [Example 3-36, 4-[4-(1,4-Diazepan-1-yl)-6-methylquinolin-2-yl]-2,3,4,5-tetrahydro-1,4-benzothiazepine 1,1-dioxide], 0.092 µM. Turning to `NCCNc1cc(N2CCCc3ccccc3C2)nc2cccc(Cl)c12` [Example 119, N-[5-Chloro-2-(1,3,4,5-tetrahydro-2H-2-benzazepin-2-yl)quinolin-4-yl]ethane-1,2-diamine], the EC50 is 6.66 µM.

As for `NC1=N[C@@H](CCc2cc(N3CCCc4ccccc4C3)nc3ccccc23)CO1` [Example 131, (4S)-4-{2-[2-(1,3,4,5-Tetrahydro-2H-2-benzazepin-2-yl)quinolin-4-yl]ethyl}-4,5-dihydro-1,3-oxazol-2-amine], the EC50 came to 2.52 µM. In the case of `COc1ccc2c(c1)S(=O)(=O)CCN(c1cc(NCC3(CN)COC3)c3cc(Cl)ccc3n1)C2` [Example 3-14, N-{[3-(Aminomethyl)oxetan-3-yl]methyl}-6-chloro-2-(8-methoxy-1,1-dioxido-2,3-dihydro-1,4-benzothiazepin-4(5H)-yl)quinolin-4-amine], the EC50 was 0.017 µM. Still for that read-out and setting: next, `Cc1ccc2nc(N3CCS(=O)(=O)c4ccccc4C3)cc(NCC3(CN)COC3)c2c1` [Example 3-50, N-{[3-(Aminomethyl)oxetan-3-yl]methyl}-2-(1,1-dioxido-2,3-dihydro-1,4-benzothiazepin-4(5H)-yl)-6-methylquinolin-4-amine]: 0.0004 µM; `Cc1ccc2nc(N3CCS(=O)(=O)c4ccccc4C3)cc(S(=O)(=O)c3ccccc3)c2c1` [Example 102, 4-[6-Methyl-4-(phenylsulfonyl)quinolin-2-yl]-2,3,4,5-tetrahydro-1,4-benzothiazepine 1,1-dioxide]: 9.76 µM.
